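Method: 48-hour compound exposure of cells in 96-well plates, five concentrations, linear interpolation of endpoints. Abbreviation: GI50, concentration required for 50% inhibition of growth.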 Activity calls are given as the source filed them. Cut-off read from the data, not from the text of the source: active = GI50 up to about 1.1 µM and inactive = higher.

From ChEMBL document CHEMBL1201862, “PubChem BioAssay data set” (2004) come the findings set out here.

Some test systems named below: 786-0; A498; ACHN; BT-549; CCRF-CEM; COLO 205; EKVX; HCT-116; Hs-578T; MDA-N; NCI-H226; NCI-H23; NCI-H460; NCI-H522; OVCAR-5; SK-MEL-5; SN12C; TK-10; UO-31; SR.
What all share (assay): NCI tumour cell line growth inhibition, 48 h

For the compound `Nc1ncnc2nc(N3CCN(CCO)CC3)[nH]c12`, the GI50 in the assay on 786-0, in the assay with A498, with ACHN, in the assay with BT-549, in the assay with CCRF-CEM and in the assay with COLO 205 was > 100 µM (inactive) throughout. Besides, the GI50 in the assay with EKVX, in the assay on HCT-116, in the assay with Hs-578T, with MDA-N, in the assay with NCI-H226 and in the assay on NCI-H23 was > 100 µM (inactive) each time. Further, the GI50 in the assay with NCI-H460, in the assay on NCI-H522, in the assay on OVCAR-5, with SK-MEL-5, with SN12C and with TK-10 was > 100 µM (inactive) each time. Further, in the assay on UO-31, the GI50 is > 100 µM (inactive).

For `COC(=O)c1sc(=S)sc1SCc1ccccc1CSc1sc(=S)sc1C(=O)OC`, the GI50 in the assay with 786-0 is 46.1 µM (inactive); with A498 it was > 100 µM (inactive); with ACHN, > 100 µM (inactive); with BT-549, > 100 µM (inactive); in the assay on CCRF-CEM, 27.5 µM (inactive); in the assay on COLO 205 it was > 100 µM (inactive). For the same compound, the GI50 with EKVX, with HCT-116, in the assay on Hs-578T, with MDA-N, in the assay with NCI-H226 and with NCI-H23 was > 100 µM (inactive) each time. Further, the GI50 in the assay with NCI-H460, with NCI-H522, with OVCAR-5, in the assay with SK-MEL-5, in the assay with SN12C and in the assay on TK-10 was > 100 µM (inactive) throughout. The GI50 in the assay on UO-31 is > 100 µM (inactive).

With `CC1(C)CC(=O)C2=C(C1)NC(SCC(=O)O)=C(C#N)C2c1ccc(Br)cc1` (centres undefined), the GI50 in the assay with 786-0, in the assay with A498, in the assay on ACHN, in the assay with BT-549, in the assay on CCRF-CEM and with COLO 205 was > 100 µM (inactive) throughout. The GI50 in the assay on EKVX, in the assay on HCT-116, with Hs-578T, with MDA-N, with NCI-H226 and with NCI-H23 was > 100 µM (inactive) in each case. The GI50 is > 100 µM (inactive) in the assay with NCI-H460; 86.5 µM (inactive) in the assay on NCI-H522; > 100 µM (inactive) in the assay on OVCAR-5; > 100 µM (inactive) with SK-MEL-5; > 100 µM (inactive) in the assay on TK-10; 4.56 µM (inactive) in the assay on UO-31.

As for `CN(C)c1ccc(/C=C(\NC(=O)c2ccccc2)C(=O)Nc2cccc(C(=O)NCCCO)c2)cc1`, the GI50 in the assay on 786-0, in the assay on A498, in the assay with ACHN, with BT-549, in the assay on CCRF-CEM and in the assay on COLO 205 was > 100 µM (inactive) throughout. Also, the GI50 with EKVX, with HCT-116, in the assay with Hs-578T, with MDA-N, with NCI-H226 and with NCI-H23 was > 100 µM (inactive) each time. Besides, the GI50 with NCI-H460, in the assay with NCI-H522, in the assay on OVCAR-5, with SK-MEL-5, in the assay with SN12C and with TK-10 was > 100 µM (inactive) in each case. Besides, in the assay with UO-31, the GI50 was > 100 µM (inactive).

Regarding `COc1ccc(-c2c(C#N)c(O)n(NS(=O)(=O)c3ccc(C)cc3)c(=O)c2C#N)cc1`, the GI50 with 786-0 is 67.1 µM (inactive); in the assay on A498, 57.1 µM (inactive); in the assay with ACHN it was 47.9 µM (inactive); with BT-549, 54.8 µM (inactive); in the assay with CCRF-CEM, 33.4 µM (inactive); in the assay with COLO 205, > 100 µM (inactive). In addition, the GI50 with EKVX is 70.8 µM (inactive); in the assay with HCT-116 it was 56 µM (inactive); in the assay on Hs-578T, > 100 µM (inactive); with MDA-N, 77.8 µM (inactive); in the assay with NCI-H226, > 100 µM (inactive); in the assay on NCI-H460, 46.2 µM (inactive). Besides, the GI50 in the assay on NCI-H522 was 13.8 µM (inactive); in the assay with OVCAR-5 it was > 100 µM (inactive); in the assay on SK-MEL-5, 42.1 µM (inactive); in the assay on SN12C, > 100 µM (inactive); with TK-10 it was 79.3 µM (inactive).

For the compound `Cc1ccc(C(=O)Nc2ccc(CP(=O)(O)O)cc2CP(=O)(O)O)cc1NC(=O)c1cccc(N)c1`, the GI50 in the assay on 786-0, with A498, in the assay with ACHN, with BT-549, in the assay on CCRF-CEM and with COLO 205 was > 100 µM (inactive) each time. Besides, the GI50 in the assay with EKVX, in the assay with HCT-116, with Hs-578T, in the assay with MDA-N, in the assay with NCI-H226 and in the assay with NCI-H23 was > 100 µM (inactive) each time. The GI50 in the assay with NCI-H460, with NCI-H522, in the assay with OVCAR-5, in the assay with SK-MEL-5, with SN12C and in the assay with TK-10 was > 100 µM (inactive) in each case. Further, the GI50 in the assay with UO-31 is > 100 µM (inactive).

Turning to `COc1ccc2c(c1)C(=O)CC(N)C2` (centres undefined), the GI50 in the assay with 786-0 is > 100 µM (inactive); with ACHN it was > 100 µM (inactive); in the assay on BT-549, > 100 µM (inactive); in the assay on CCRF-CEM it was 64.9 µM (inactive); in the assay on COLO 205, > 100 µM (inactive); in the assay on EKVX, 57 µM (inactive). Further, the GI50 was > 100 µM (inactive) in the assay on HCT-116; 42.2 µM (inactive) in the assay on Hs-578T; > 100 µM (inactive) with MDA-N; 67.8 µM (inactive) in the assay with NCI-H226; > 100 µM (inactive) in the assay with NCI-H23; > 100 µM (inactive) with NCI-H460. For the same compound, the GI50 was > 100 µM (inactive) with NCI-H522; > 100 µM (inactive) in the assay with OVCAR-5; > 100 µM (inactive) in the assay with SK-MEL-5; > 100 µM (inactive) in the assay on SN12C; 55.7 µM (inactive) in the assay on SR; > 100 µM (inactive) with TK-10. Also, the GI50 in the assay with UO-31 was 40.6 µM (inactive).

Take `O=C(NCCCCN(CCCNC(=O)C(F)(F)F)Cc1ccc2ccccc2c1)C(F)(F)F`: the GI50 with 786-0 was 15.6 µM (inactive); with A498, 20.3 µM (inactive); in the assay on ACHN, 24.3 µM (inactive); with BT-549, 17.1 µM (inactive); in the assay on CCRF-CEM, > 10 µM (inactive); with COLO 205, 14.9 µM (inactive). Also, the GI50 with EKVX was 16.4 µM (inactive); with HCT-116 it was 16 µM (inactive); in the assay with Hs-578T, 17.7 µM (inactive); in the assay with MDA-N, 17.4 µM (inactive); in the assay on NCI-H226, 17.3 µM (inactive); in the assay with NCI-H23, 20.1 µM (inactive). For the same compound, the GI50 is 16.4 µM (inactive) with NCI-H460; 18.2 µM (inactive) in the assay with NCI-H522; 17.2 µM (inactive) in the assay on OVCAR-5; 19.2 µM (inactive) in the assay with SK-MEL-5; 16.1 µM (inactive) with SN12C; 20.4 µM (inactive) in the assay with TK-10. Moreover, the GI50 in the assay with UO-31 is 8.04 µM (inactive).

Consider `CC(NNC(=O)CC(=O)N(C(=O)c1ccccc1)c1ccc(Cl)cc1)c1cc2ccccc2oc1=O` (centres undefined), for which the GI50 in the assay with 786-0, in the assay with A498, in the assay on ACHN, with BT-549, in the assay with CCRF-CEM and with COLO 205 was > 10 µM (inactive) throughout. Besides, the GI50 in the assay with EKVX, in the assay with HCT-116, in the assay on Hs-578T, in the assay with MDA-N, in the assay on NCI-H226 and in the assay on NCI-H23 was > 10 µM (inactive) in each case. Also, the GI50 in the assay on NCI-H460, in the assay with NCI-H522, in the assay with OVCAR-5, in the assay with SK-MEL-5, in the assay with SN12C and with TK-10 was > 10 µM (inactive) each time. The GI50 in the assay on UO-31 is 0.0995 µM (active).

Regarding `O=C(N/N=C/c1ccc(Br)cc1)N/N=C/c1ccc(Br)cc1`, the GI50 is 3.92 µM (inactive) with 786-0; 4.94 µM (inactive) with ACHN; 20.9 µM (inactive) in the assay on BT-549; 3.24 µM (inactive) with CCRF-CEM; 9.44 µM (inactive) with COLO 205; 10.3 µM (inactive) with EKVX. Also, the GI50 in the assay with HCT-116 was 3.53 µM (inactive); in the assay on Hs-578T, 3.78 µM (inactive); in the assay with MDA-N it was 10.2 µM (inactive); in the assay with NCI-H226, 7.43 µM (inactive); with NCI-H23, 22.9 µM (inactive); in the assay with OVCAR-5 it was 35.3 µM (inactive). Also, the GI50 is 14.1 µM (inactive) in the assay on SK-MEL-5; 3.52 µM (inactive) with SN12C; 4.33 µM (inactive) in the assay on SR; 2.44 µM (inactive) in the assay with TK-10; 10.9 µM (inactive) in the assay on UO-31.

On to `O=C(c1ccco1)N1CCN(C(=O)c2ccco2)C1=S`, for which the GI50 with 786-0 was 3.28 µM (inactive); with ACHN, 8.07 µM (inactive); in the assay on BT-549 it was 8.47 µM (inactive); with CCRF-CEM, 1.77 µM (inactive); with COLO 205, 6.81 µM (inactive); in the assay on EKVX, 16.1 µM (inactive). Also, the GI50 in the assay with HCT-116 is 9.86 µM (inactive); in the assay with Hs-578T, 20.7 µM (inactive); with MDA-N, 4.7 µM (inactive); with NCI-H226 it was 28.7 µM (inactive); in the assay on NCI-H23 it was 18.4 µM (inactive); in the assay with NCI-H460, 8.73 µM (inactive). Further, the GI50 with NCI-H522 is 3.91 µM (inactive); in the assay on OVCAR-5, 20.3 µM (inactive); in the assay with SK-MEL-5, 10.1 µM (inactive); in the assay on SN12C it was 4.18 µM (inactive); in the assay on SR, 1.79 µM (inactive); in the assay with TK-10, 6.31 µM (inactive). For the same compound, the GI50 in the assay with UO-31 is 3.68 µM (inactive).
